The record followed here is patent publication US4419123A, “Herbicidal 4-trifluoromethyl-3'-carbon-substituted-4'-substituted diphenyl ethers” (Rohm and Haas Company, priority 1981, dated 1983).

Series [1] in a line: Postemergence herbicidal activity (% control) against monocot weeds. To be noted: post-emergence, 336 h, average, about two weeks after application, read-out: Herbicidal activity (% control), postemergence, monocots; for activity at 2241.7 g/ha: 2 lb./A.; for activity at 4483.4 g/ha: 4 lb./A. The class given is in vivo. The text has this:
(§1) barnyardgrass (Echinochloa crusgalli) crabgrass (Digitaria spp.) nutsedge (Cyperus esculentus)
(§2) At 2 and 4 pounds per acre:
(§3) **Bermudagrass (Cynodon dactylon)
(§4) *downy brome (Bromus tectorum) foxtail (Setaria faberii)
(§5) Johnsongrass (Sorghum halepense) […]
(§6) quackgrass (Agropyron repens)
(§7) *ryegrass (Lolium perenne)
(§8) *wild oats (Avena factua)
(§9) *yellow millet (Panicum miliaceum)
(§10) The following test procedure is employed.

A short description of series [2]: Preemergence herbicidal activity (% control) against monocot weeds. The series is classed as in vivo. The settings on record: pre-emergence, 336 h, average, about two weeks after application, read-out: Herbicidal activity (% control), preemergence, monocots; for activity at 2241.7 g/ha: 2 lb./A.; for activity at 4483.4 g/ha: 4 lb./A.
Description: as §1, §2, §3, §4, §5, §6, §7, §8, §9, §10

Another series relates to peanuts. In words: Crop tolerance (selective herbicidal activity), peanuts. The series is classed as in vivo. The procedure:
as §10
(§11) Following the general test procedure of Example 37, diphenyl ethers are evaluated for significant tolerance (as shown by 50% or less kill of the test crop at levels of application which give more than 50% kill of many or all of the weeds of Example 73) towards some or all of the following common agronomic crops (not all compounds tested against all crops): alfalfa, snapbeans, corn, cotton, cucumbers, peanuts, rape, rice, safflower, soybeans, tomatoes, and wheat.

The nature of series [3]: Preemergence herbicidal activity (% control) against dicot weeds. The settings on record: pre-emergence, 336 h; for activity at 2241.7 g/ha: read-out: Herbicidal activity (% control), preemergence, dicots, 2 lb./A., average, about two weeks after application; for activity at 4483.4 g/ha: read-out: Herbicidal activity (% control), preemergence, dicots, 4 lb./A., average, about two weeks after application.

The next series concerns wheat. In words: Crop tolerance (selective herbicidal activity), wheat. The series is classed as in vivo. The procedure: as §10, §11
The nature of series [4]: Postemergence herbicidal activity (% control) against dicot weeds. To be noted: post-emergence, 336 h; for activity at 2241.7 g/ha: read-out: Herbicidal activity (% control), postemergence, dicots, 2 lb./A., average, about two weeks after application; for activity at 4483.4 g/ha: read-out: Herbicidal activity (% control), postemergence, dicots, 4 lb./A., average, about two weeks after application.

In the next series the test system is rice. In words: Crop tolerance (selective herbicidal activity), rice. The series is classed as in vivo. How it is done:
as §10, §11

In a further series the test system is corn. The series is described as follows: Crop tolerance (selective herbicidal activity), corn. The series is classed as in vivo. The procedure:
as §10, §11

Another series relates to soybeans. In words: Crop tolerance (selective herbicidal activity), soybeans. The class given is in vivo. The settings on record: preemergence applications. How it is done: as §10, §11
The mark [5] stands for this setting: postemergence applications or applications on transplanted rice.

For `CC(=O)Oc1cc(Oc2ccc(C(F)(F)F)cc2Cl)ccc1[N+](=O)[O-]` [Example 18, 2-Chloro-α,α,α-trifluoro-p-tolyl-3-acetoxy-4-nitrophenylether], the activity at 2241.7 g/ha stood at 28% in series [1], 99% in series [2], 100% in series [3] and 98% in [4]. Further, the activity at 4483.4 g/ha in series [1] came out at 28%; in series [2] it was 67%; in series [3], 100%; in series [4], 86%. The Tolerance to peanuts entry in the series on peanuts (postemergence applications) is recorded as “Tolerance (significant tolerance (as shown by 50% or less kill of the test crop at levels of application which give more than 50% kill of many or all of the weeds of Example 73))”. Besides, the Tolerance to wheat result in the series on wheat (postemergence applications) and in the series with wheat (preemergence applications) was “Tolerance (significant tolerance (as shown by 50% or less kill of the test crop at levels of application which give more than 50% kill of many or all of the weeds of Example 73))” in each case. In addition, the Tolerance to rice entry with rice (setting [5]) is given as “Tolerance (significant tolerance (as shown by 50% or less kill of the test crop at levels of application which give more than 50% kill of many or all of the weeds of Example 73))”. Besides, in the series with corn (postemergence applications), the Tolerance to corn result is reported as “Tolerance (significant tolerance (as shown by 50% or less kill of the test crop at levels of application which give more than 50% kill of many or all of the weeds of Example 73))”. Also, the Tolerance to soybeans entry with soybeans is recorded as “Tolerance (significant tolerance (as shown by 50% or less kill of the test crop at levels of application which give more than 50% kill of many or all of the weeds of Example 73))”.
In the case of `CCNc1cc(Oc2ccc(C(F)(F)F)cc2Cl)ccc1[N+](=O)[O-]` [Example 19, 2-Chloro-α,α,α-trifluoro-p-tolyl-3-ethylamino-4-nitrophenyl ether], the activity at 2241.7 g/ha in series [1] is 94%; in series [2], 77%; in series [3] it was 91%; in series [4] it was 97%. The activity at 4483.4 g/ha turned out to be 84% in series [1], 91% in series [2], 96% in series [3] and 98% in series [4]. Further, the Tolerance to peanuts result in the series with peanuts (preemergence applications) is “Tolerance (significant tolerance (as shown by 50% or less kill of the test crop at levels of application which give more than 50% kill of many or all of the weeds of Example 73))”. For the same compound, the Tolerance to wheat entry in the series on wheat (preemergence applications) is given as “Tolerance (significant tolerance (as shown by 50% or less kill of the test crop at levels of application which give more than 50% kill of many or all of the weeds of Example 73))”. Further, the Tolerance to rice entry in the series on rice (preemergence applications) is on record as “Tolerance (significant tolerance (as shown by 50% or less kill of the test crop at levels of application which give more than 50% kill of many or all of the weeds of Example 73))”. In addition, the Tolerance to corn result in the series with corn (postemergence applications) and in the series with corn (preemergence applications) was “Tolerance (significant tolerance (as shown by 50% or less kill of the test crop at levels of application which give more than 50% kill of many or all of the weeds of Example 73))” each time. In the series on soybeans, the Tolerance to soybeans result is listed as “Tolerance (significant tolerance (as shown by 50% or less kill of the test crop at levels of application which give more than 50% kill of many or all of the weeds of Example 73))”.
For the compound `O=C(O)c1cc(Oc2ccc(C(F)(F)F)cc2Cl)ccc1[N+](=O)[O-]` [Example 48, 2-Chloro-α,α,α-trifluoro-p-tolyl-3-carboxy-4-nitrophenylether], the activity at 2241.7 g/ha in series [1] came out at 84%; in series [2], 100%; in series [3], 100%; in series [4], 97%. The activity at 4483.4 g/ha in series [1] amounted to 75%; in [2], 99%; in series [3] it was 97%; in series [4], 100%. In addition, the Tolerance to peanuts result with peanuts (postemergence applications) and with peanuts (preemergence applications) was “Tolerance (significant tolerance (as shown by 50% or less kill of the test crop at levels of application which give more than 50% kill of many or all of the weeds of Example 73))” in each case. Also, the Tolerance to wheat entry in the series with wheat (postemergence applications) was “Tolerance (significant tolerance (as shown by 50% or less kill of the test crop at levels of application which give more than 50% kill of many or all of the weeds of Example 73))”. In addition, the Tolerance to rice entry in the series on rice (setting [5]) is reported as “Tolerance (significant tolerance (as shown by 50% or less kill of the test crop at levels of application which give more than 50% kill of many or all of the weeds of Example 73))”. Further, in the series on soybeans, the Tolerance to soybeans result is “Tolerance (significant tolerance (as shown by 50% or less kill of the test crop at levels of application which give more than 50% kill of many or all of the weeds of Example 73))”.
Take `COC(=O)C(C)Oc1cc(Oc2ccc(C(F)(F)F)cc2Cl)ccc1[N+](=O)[O-]` (stereo not shown) [Example 50]: the activity at 2241.7 g/ha is 100% in series [1], 98% in series [2] and 100% in [3]. Further, the activity at 4483.4 g/ha came out at 97% in series [1], 90% in series [2], 83% in series [3] and 100% in series [4]. Besides, the Tolerance to peanuts entry in the series on peanuts (preemergence applications) was “Tolerance (significant tolerance (as shown by 50% or less kill of the test crop at levels of application which give more than 50% kill of many or all of the weeds of Example 73))”. Moreover, the Tolerance to wheat entry in the series with wheat (preemergence applications) is reported as “Tolerance (significant tolerance (as shown by 50% or less kill of the test crop at levels of application which give more than 50% kill of many or all of the weeds of Example 73))”. For the same compound, in the series on soybeans, the Tolerance to soybeans result is “Tolerance (significant tolerance (as shown by 50% or less kill of the test crop at levels of application which give more than 50% kill of many or all of the weeds of Example 73))”.
For `CCOc1cc(Oc2c(Cl)cc(C(F)(F)F)cc2Cl)ccc1[N+](=O)[O-]` [Example 56, 2,6-Dichloro-α,α,α-trifluoro-p-tolyl-3-ethoxy-4-nitrophenyl ether], the values for the activity at 2241.7 g/ha in series [1], in series [2] and in [4] were 100%, 100% and 99%, respectively. Further, the activity at 4483.4 g/ha was found to be 99% in [1], 91% in series [2], 83% in [3] and 100% in [4]. Also, the Tolerance to peanuts entry with peanuts (preemergence applications) was “Tolerance (significant tolerance (as shown by 50% or less kill of the test crop at levels of application which give more than 50% kill of many or all of the weeds of Example 73))”. Moreover, the Tolerance to wheat result in the series with wheat (preemergence applications) is listed as “Tolerance (significant tolerance (as shown by 50% or less kill of the test crop at levels of application which give more than 50% kill of many or all of the weeds of Example 73))”. The Tolerance to corn result in the series with corn (postemergence applications) is reported as “Tolerance (significant tolerance (as shown by 50% or less kill of the test crop at levels of application which give more than 50% kill of many or all of the weeds of Example 73))”.
